Measured values reported in patent US20120309796A1, “BENZOCYCLOHEPTENE ACETIC ACIDS” (priority 2011, published 2012).

Experiments:
human CRTH2 [1] = target: T1, human CRTH2 (Homo sapiens, UniProt Q9Y5Y4); assay: Human CRTH2 Receptor Binding Assay (whole cell, [3H]ramatroban competition); design: two mammalian expression vectors that harbored human CRTH2 and G-alpha16 cDNAs; expressed in transfected cells; conditions: CHO-K1 cells expressing human CRTH2 and G-alpha16; 20 nM [3H]ramatroban; 1 hour, room temperature
T1 sequence (Q9Y5Y4 1-395): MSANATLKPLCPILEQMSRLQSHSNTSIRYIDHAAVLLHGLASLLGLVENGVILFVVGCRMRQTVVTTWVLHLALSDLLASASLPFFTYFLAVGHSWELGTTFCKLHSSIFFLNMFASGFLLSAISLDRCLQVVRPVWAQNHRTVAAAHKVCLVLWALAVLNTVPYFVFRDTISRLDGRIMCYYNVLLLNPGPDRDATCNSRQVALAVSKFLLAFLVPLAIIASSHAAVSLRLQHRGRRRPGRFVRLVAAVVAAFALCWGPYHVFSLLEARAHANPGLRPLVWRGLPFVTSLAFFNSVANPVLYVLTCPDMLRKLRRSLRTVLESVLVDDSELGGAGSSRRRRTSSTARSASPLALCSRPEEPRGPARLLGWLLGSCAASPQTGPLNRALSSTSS
Excerpt: A whole cell receptor binding assay using [^3H]ramatroban as the competing radioactive ligand was employed to evaluate the compound binding activity to human CRTH2. The radioactive ligand [^3H]ramatroban was synthesized according to Sugimoto et. al. (Eur. J. Pharmacol. 2005, 524, 30-37) to a specific activity of 42 Ci/mmol
A cell line stably expressing human CRTH2 was established by transfecting CHO-K1 cells with two mammalian expression vectors that harbored human CRTH2 and G-alpha16 cDNAs, respectively, using FuGene® 6 transfection reagent (from Roche). Stable clones expressing CRTH2 were selected by staining each clone with BM16 (BD Pharmingen™ from BD Biosciences, a division of Becton, Dickinson and Company), which is a rat monoclonal antibody to human CRTH2. The cells were maintained as monolayer cultures in Ham's F-12 medium containing 10% fetal bovine serum, 100 units/mL penicillin, 100 μg/mL streptomycin, 2 mM glutamine, 0.5 mg/mL G418 (geneticin) for CRTH2, and 0.2 mg/mL hygromycin-B (for G-alpha 16). For whole cell receptor binding assay, the monolayer cells were rinsed once with PBS (phosphate buffered saline), dissociated using ethylenediaminetetraacetate (Versene™ EDTA from Lonza Inc.), and suspended in PBS containing 10 mM MgCl2 and 0.06% BSA (bovine serum albumin) at 1.5×10^6 cells/mL.
The binding reactions (0.2 mL) were performed in 96-well plates at room temperature in PBS containing 1.5×10^5 cells, 10 mM MgCl2, 0.06% BSA, 20 nM [^3H]ramatroban, and test compound at various concentrations. After 1 hour of binding reactions, the cells were harvested on GF™/B filter microplates (microtiter plates with embedded glass fiber from PerkinElmer, Inc.) and washed 5 times with PBS using a Filtermate™ Harvester (a cell harvester that harvests and washes cells from microplates from PerkinElmer, Inc.). The radioactivities bound to the cells were determined using a microplate scintillation counter (TopCount® NXT, from PerkinElmer, Inc.) after adding 50 μL of Microscint™ 20 scintillation fluid (from PerkinElmer, Inc.) to each well of the filter plates. The radioactivity from non-specific binding was determined by replacing compound with 10 μM of 15(R)-15-methyl PGD2 (from Cayman Chemical Company) in the reaction mixtures. The radioactivity bound to the cells in the absence of compound (total binding) was determined by replacing compound with 0.25% of DMSO (dimethyl sulfoxide) in the reaction mixture. Specific binding data were obtained by subtracting the radioactivity of non-specific binding from each binding data.
The IC50 value is defined as the concentration of the tested compound that is required for 50% inhibition of total specific binding. In order to calculate the IC50 value, the percent inhibition data were determined for 7 concentrations for each compound. The percent inhibition for a compound at each concentration was calculated according to the following formula, [1-(specific binding in the presence of compound)/(total specific binding)]×100. The IC50 value was then obtained by fitting the percent inhibition data to a sigmoidal dose-response (4 parameter logistic) model in the XLfit® software Excel add-in program [from ID Business Solutions Ltd., model 205, where F(x)=(A+(B−A)/(1+((C/x)̂D)))].

human CRTH2 [2] = target: T1, human CRTH2; assay: Calcium Flux Assay Using Fluorometric Imaging Plate Reader (FLIPR); type: cell-based; design: expressed in transfected cells; host or cells: CHO-K1 previously transfected with G-alpha 16; conditions: CHO-K1 cells with G-alpha 16 and human CRTH2; inhibition of DK-PGD2 ligand-induced Ca2+ flux
Description: CHO-K1 cells previously transfected with G-alpha 16 were subsequently transfected with the human CRTH2 receptor and the neomycin resistance gene. Following selection in 800 μg/mL G418 (geneticin), individual clones were assayed for their receptor expression based on staining with an anti human CRTH2 IgG, followed by assaying for their response to 13,14-dihydro-15-keto Prostaglandin D2 (DK-PDG2) (ligand) in the Ca^2+ Flux assay. Positive clones were then cloned by limiting dilution cloning. The transfected cells were cultured in Ham's F-12 medium supplemented with 10% fetal bovine serum, 2 mM glutamine, 100 U/mL penicillin/100 μg/mL streptomycin, 200 μg/mL hygromycin B, and 800 μg/mL G418 (geneticin). Cells were harvested with trypsin-EDTA (trypsin-ethylenediaminetetraacetic acid) and counted using ViaCount® reagent (from Guava Technologies, Inc. which contains two DNA-binding dyes that enable the reagent user to distinguish between viable and non-viable cells). The cell suspension volume was adjusted to 2.5×10^5 cells/mL with complete growth media. Aliquots of 50 μL were dispensed into BD Falcon™ 384 well black/clear microplates (from BD Biosciences, a division of Becton, Dickinson and Company) and the microplates were placed in a 37° C. CO2 incubator overnight. The following day, the microplates were used in the assay.
Loading Buffer containing dye (from the FLIPR® Calcium 3 Assay Kit from Molecular Devices, a division of MDS Analytical Technologies and MDS Inc.) was prepared by dissolving the contents of one bottle into 200 mL Hank's Balanced Salt Solution containing 20 mM HEPES (4-(2-hydroxyethyl)-1-piperazineethanesulfonic acid) and 2.5 mM probenecid. Growth media was removed from the cell plates and 25 μL of Hank's Balanced Salt Solution (HBSS) containing 20 mM HEPES, 0.05% BSA and 2.5 mM probenecid was added to each well followed by 25 μL of diluted dye using a Multidrop dispenser. The plates were then incubated for 1 hour at 37° C.
During the incubation, test compound plates were prepared by adding 90 μL of HBSS/20 mM HEPES/0.005% BSA buffer to the 2 μL of serial diluted compounds. To prepare serial diluted compounds, 20 mM stocks of compounds were dissolved in 100% DMSO. The compound dilution plate was set up as follows: well #1 received 5 μL of compound plus 10 μL of DMSO. Wells 2-10 received 10 μL of DMSO. 5 μL was mixed and transferred from well #1 into well #2. 1:3 serial dilutions were continued out 10 steps. 2 μl of diluted compound was transferred into duplicate wells of a 384 well “assay plate” and then 90 μL of buffer was added.
After incubation, both the cell and “assay plate” plates were brought to the fluorometric imaging plate reader (FLIPR®) and 20 μL of the diluted compounds were transferred to the cell plates by the FLIPR®. Plates were then incubated for 1 hour at room temperature. After the 1 hour incubation, plates were returned to the FLIPR® and 20 μL of 4.5× concentrated ligand was added to the cell plates. During the assay, fluorescence readings were taken simultaneously from all 384 wells of the cell plate every 1.5 seconds. Five readings were taken to establish a stable baseline, then 20 μL of sample was rapidly (30 μL/sec) and simultaneously added to each well of the cell plate. The fluorescence was continuously monitored before, during and after sample addition for a total elapsed time of 100 seconds. Responses (increase in peak fluorescence) in each well following agonist addition were determined. The initial fluorescence reading from each well, prior to ligand stimulation, was used as a zero baseline value for the data from that well. The responses were expressed as % inhibition of the buffer control. […]

IC50 (human CRTH2 [1]) | IC50 (human CRTH2 [2]) | Structure (SMILES)
164 nM | 784 nM | Cc1cc(-c2ccc(S(=O)(=O)N(C)C3CCCCc4c(OCC(=O)O)cccc43)nc2)cc(C(C)(C)C)c1 (centres unmarked) [Example 36, (5-{[5-(3-tert-Butyl-5-methyl-phenyl)-pyridine-2-sulfonyl]-methyl-amino}-6,7,8,9-tetrahydro-5H-benzocyclohepten-1-yloxy)-acetic acid]
57.4 nM | 6.1 nM | CN(C1CCCCc2c(OCC(=O)O)cccc21)S(=O)(=O)c1cc(Br)cc(C(F)(F)F)c1 (centres unmarked) [Example 9, {5-[(3-Bromo-5-trifluoromethyl-benzenesulfonyl)-methyl-amino]-6,7,8,9-tetrahydro-5H-benzocyclohepten-1-yloxy}-acetic acid]
952 nM | 581 nM | CS(=O)(=O)c1cccc(S(=O)(=O)NC2CCCCc3c(OCC(=O)O)cccc32)c1 (centres unmarked) [Example 5, [5-(3-Methanesulfonyl-benzenesulfonylamino)-6,7,8,9-tetrahydro-5H-benzocyclohepten-1-yloxy]-acetic acid]
457 nM | 4310 nM | CN(C1CCCCc2c(OCC(=O)O)cccc21)S(=O)(=O)c1ccc(-c2cccc(C(F)(F)F)c2)cn1 (centres unmarked) [Example 34, (5-{Methyl-[5-(3-trifluoromethyl-phenyl)-pyridine-2-sulfonyl]-amino}-6,7,8,9-tetrahydro-5H-benzocyclohepten-1-yloxy)-acetic acid]
226 nM | > 5000 nM | CC(C)c1cccc(-c2cccc(S(=O)(=O)NC3CCCCc4c(OCC(=O)O)cccc43)c2)c1 (centres unmarked) [Example 41, [5-(3′-Isopropyl-biphenyl-3-sulfonylamino)-6,7,8,9-tetrahydro-5H-benzocyclohepten-1-yloxy]-acetic acid]
47 nM | 36.6 nM | O=C(O)COc1cccc2c1CCCCC2NS(=O)(=O)c1cc(Br)cc(C(F)(F)F)c1 (centres unmarked) [Example 8, [5-(3-Bromo-5-trifluoromethyl-benzenesulfonylamino)-6,7,8,9-tetrahydro-5H-benzocyclohepten-1-yloxy]-acetic acid]
33.6 nM | 255 nM | O=C(O)COc1cccc2c1CCCCC2NS(=O)(=O)c1ccc(-c2ccccc2)cc1 (centres unmarked) [Example 4, [5-(Biphenyl-4-sulfonylamino)-6,7,8,9-tetrahydro-5H-benzocyclohepten-1-yloxy]-acetic acid]
